Source: PubChem BioAssay (NCI)
Several values for one entry are separate records, joined by “and”; a condition that tells them apart may be missing. Equal entries are not always repeated.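 Following 48 hours of exposure in 96-well plates, responses at five concentrations were used to interpolate endpoints linearly. GI50 marks 50% less growth. TGI denotes the concentration required for complete inhibition of growth.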

How the values were obtained:
Assay in all cases: NCI anticancer screen, dose series, 48 h
EKVX NSCLC = system: EKVX NSCLC
SF-539 CNS = system: SF-539 CNS
NCI-H460 lung = system: NCI-H460 lung
A549 NSCLC = system: A549 NSCLC
HT29 colon = system: HT29 colon
M14 melanoma = system: M14 melanoma
TK-10 renal = system: TK-10 renal
HCC-2998 colon = system: HCC-2998 colon

Row | SMILES | GI50 (EKVX NSCLC) | TGI (EKVX NSCLC) | GI50 (SF-539 CNS) | TGI (SF-539 CNS) | GI50 (NCI-H460 lung) | TGI (NCI-H460 lung) | GI50 (A549 NSCLC) | TGI (A549 NSCLC) | GI50 (HT29 colon) | TGI (HT29 colon) | GI50 (M14 melanoma) | TGI (M14 melanoma) | GI50 (TK-10 renal) | TGI (TK-10 renal) | GI50 (HCC-2998 colon) | TGI (HCC-2998 colon)
1 | Clc1nc(Cl)c2ncn(-c3ccccc3)c2n1 | 4.49 µM | 19.2 µM | 10.6 µM | 27.3 µM | 6.24 µM | 23.5 µM | 12.9 µM | 29.8 µM | 3.87 µM | 13.5 µM | 1.86 µM | 3.85 µM | 7.46 µM | 20.9 µM | – | –
2 | Cn1c2c(c3ccccc31)CCN1C[C@@H]3CCCC[C@H]3C[C@@H]21 | 5.57 µM | > 100 µM | 2.87 µM | > 30 µM | 3.34 µM | > 36.1 µM | 3.1 µM | > 100 µM | 2.61 µM | 8.06 µM | 2.95 µM | 18.4 µM | 3.01 µM | 23.2 µM | 2.1 µM | 5.48 µM
3 | N#CC1=C(N)N=C(N2CCOCC2)C(C#N)C12Nc1ccccc1S2 (stereo not drawn) | 1.7 µM | 15.6 µM | 18.9 µM | 35.5 µM | 16.6 µM | 37.1 µM | 33.3 µM | > 100 µM | – | – | 35 µM | 65.4 µM | 14 µM | 49.2 µM | – | –
4 | COc1ccc(C2=C(c3ccccc3)C(=O)N3CCCC3C2)cc1 (stereo not drawn) | > 82.9 µM | > 100 µM | 3.11 µM | 98.2 µM | – | > 62.9 µM | 0.195 µM | > 100 µM | 0.233 µM | > 100 µM | 9.54 µM | > 100 µM | 12.9 µM | > 100 µM | 2.27 µM | > 55.5 µM
5 | O=C(O)CN1C(=O)OC(c2ccccc2)C1=O (stereo not drawn) | – | > 100 µM | – | > 100 µM | – | > 100 µM | – | > 100 µM | – | > 100 µM | – | > 100 µM | – | > 100 µM | – | –
6 | CC(C)[C@@]12C[C@@H](OC(=O)COC(=O)c3ccccc3)[C@@](C)(O1)[C@@H]1CC[C@@H](C)[C@H]1[C@@H]2OC(=O)/C=C/c1ccccc1 | > 100 µM | > 100 µM | > 100 µM | > 100 µM | > 100 µM | > 100 µM | > 100 µM | > 100 µM | > 100 µM | > 100 µM | > 100 µM | > 100 µM | > 100 µM | > 100 µM | > 100 µM | > 100 µM
7 | CCCCCc1cc(/C=C2/N=C(c3ccc[nH]3)C=C2OC)[nH]c1C | – | 1.4 µM | – | 0.177 µM | – | 1.26 µM | – | 1.19 µM | – | 0.143 µM | – | < 0.034 µM | – | 1.29 µM | – | 1.02 µM
8 | O=C1NC(c2ccc3ccccc3c2)Nc2ccccc21 (stereo not drawn) | – | > 100 µM | – | > 100 µM | – | > 100 µM | – | – | – | > 100 µM | – | > 100 µM | – | > 100 µM | – | > 100 µM
9 | CC(C)n1cc(-c2ccc3c(c2)N(C)CC3)c2c(NS(=O)(=O)c3ccn(C)n3)ccnc21 | 28.2 µM | > 100 µM | 64.4 µM | > 100 µM | 47.9 µM | > 100 µM | 44 µM | > 100 µM | 71.9 µM | > 100 µM | 44.5 µM | > 100 µM | > 100 µM | > 100 µM | > 100 µM | > 100 µM
10 | CC[C@]12C=CCN3CC[C@]4(C(=C(C(=O)OC)C1)Nc1cc5c(cc14)[C@@H]1[C@H](O5)[C@@H](O)[C@@]4(CC)CC(C(=O)OC)=C5Nc6ccccc6[C@@]56CCN1[C@@H]46)[C@@H]32 | 0.927 µM and 0.748 µM | 25 µM and 33.8 µM | 0.15 µM and 0.339 µM | 3.74 µM and 7.05 µM | 1.05 µM and 1.13 µM | 7.05 µM and 11.9 µM | 1.2 µM and 0.875 µM | 12.7 µM and > 100 µM | 0.13 µM and 0.186 µM | – | 0.517 µM and 0.385 µM | 25 µM and > 100 µM | 0.185 µM and 0.402 µM | – | 0.0292 µM and 0.0366 µM | 2.63 µM and 1.26 µM
11 | O=C(Cc1cc(O)ccc1O)NO | > 100 µM | > 100 µM | > 100 µM | > 100 µM | 89.8 µM | > 100 µM | 89.4 µM | > 100 µM | – | – | > 100 µM | > 100 µM | 57.6 µM | > 100 µM | > 100 µM | > 100 µM
12 | NC(=O)c1c[nH]c2ncnc(N)c12 | 39 µM | > 100 µM | 44.8 µM | > 100 µM | 45.1 µM | > 100 µM | > 100 µM | > 100 µM | 26.6 µM | > 100 µM | 47.9 µM | > 100 µM | 19.6 µM | > 100 µM | 73 µM | > 100 µM
13 | CC(C)C[C@H](NC(=O)[C@@H](Cc1ccccc1)n1ccc(Nc2ccccc2)cc1=O)B(O)O | – | – | 0.174 µM | 0.484 µM | 0.836 µM | 8.29 µM | 0.525 µM | 21.6 µM | 0.342 µM | 15.5 µM | 0.278 µM | 1.91 µM | 0.269 µM | 0.98 µM | 0.353 µM | 1.36 µM
14 | O=C1CCc2cc(Br)ccc2O1 | – | > 100 µM | – | > 100 µM | – | > 100 µM | – | > 100 µM | – | > 100 µM | – | > 100 µM | – | > 100 µM | – | > 100 µM
15 | O=C(/C=C(/C=C/c1cccc2[nH]ccc12)OB(F)F)/C=C/c1cccc2[nH]ccc12 | 1.46 µM | 5.54 µM | 2.16 µM | 5.86 µM | 0.684 µM | 2.91 µM | 1.62 µM | 14.2 µM | 0.516 µM | 3.92 µM | 1.07 µM | 6.93 µM | 1.93 µM | 7.42 µM | 1.91 µM | 3.63 µM
16 | COc1ccc(-c2cc(=O)c3c(OC)c4ccoc4c(/C=C/C=O)c3o2)cc1 | – | – | 4.14 µM | 19.6 µM | 4.7 µM | 39.4 µM | 18.5 µM | 72.4 µM | 18.1 µM | > 100 µM | 2.24 µM | 7.56 µM | – | – | 13.7 µM | 27.8 µM
17 | COc1cc(-c2oc3c(OC)c(O)c(OC)c(O)c3c(=O)c2OC)cc(OC)c1OC | – | > 100 µM | – | > 100 µM | – | > 100 µM | – | > 100 µM | – | > 100 µM | – | > 100 µM | – | > 100 µM | – | > 100 µM
